Like-named read-outs stand apart in the source and are kept apart here.
Columns and labels:
Type in all cases: cell-based
[1] = molecular target: T1, human somatostatin receptor subtype 2 (Homo sapiens, UniProt P30874); test: Functional assay for SSTR2 agonists (HTRF cAMP); conditions: CHO-K1 cells stably expressing human SST2, NKH477-stimulated cAMP, 20 min at 37 C
T1 construct: expressed in transfected cells
Method in brief: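 Agonist activity read as fall in intracellular cAMP: HTRF 665/620 nm ratio regressed to a cAMP standard curve, EC50 fitted. Stable human SSTR2 CHO-K1 cells exposed 20 min at 37 °C to compound, final concentrations typically 0-10,000 nM.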

SST2 = molecular target: T2, SST2 (Homo sapiens, UniProt P30874); test: PathHunter CHO-K1 SST2 Internalization Assay; conditions: PathHunter CHO-K1 SST2 cells, 90 min at 37 C, luminescence
T2 construct: host or cells: PathHunter CHO-K1 SST2 cells
Method in brief: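 Four-parameter nonlinear fits of background-corrected luminescence (duplicate means) gave IC50s. NDCs were serially diluted 1:3 over 11 points from a 10 uM final top concentration and incubated 90 min at 37 C with human SST2 CHO-K1 cells plated 48 h earlier at 2500/well. Beta-Glo read-out developed 60 min at RT.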

[2] = tested on: NCI-H524 human small cell lung cancer cells; test: H524 assay: inhibition of cell proliferation (CellTiter Glo); conditions: 2 h treatment, washout, additional 70 h incubation
Method in brief: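 Proliferation was measured by CellTiter Glo 70 h after a washout that followed a 2 h pulse of NDC. Doses were an 11-point, two-fold dilution series from 1 uM. IC50 was fitted with a four-parameter model to luminescence-based % inhibition relative to control cells.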

T2 sequence (P30874 whole entry): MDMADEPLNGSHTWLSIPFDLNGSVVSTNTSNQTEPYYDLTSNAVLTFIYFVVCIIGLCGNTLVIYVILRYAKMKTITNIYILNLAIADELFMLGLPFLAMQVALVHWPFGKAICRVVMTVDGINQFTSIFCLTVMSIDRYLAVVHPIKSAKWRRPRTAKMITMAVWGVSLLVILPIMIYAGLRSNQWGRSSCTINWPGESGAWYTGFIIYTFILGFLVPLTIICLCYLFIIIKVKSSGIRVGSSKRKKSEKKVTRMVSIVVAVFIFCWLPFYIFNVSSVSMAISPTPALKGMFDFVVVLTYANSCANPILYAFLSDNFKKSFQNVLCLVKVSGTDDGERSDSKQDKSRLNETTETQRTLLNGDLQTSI
T1 sequence (P30874 whole entry): as above

SMILES | EC50 ([1]; read-out: hSST2 cAMP Avg EC50) | EC50 (SST2; read-out: Internalization EC50) | EC50 [2] | EC50 ([1]; hSST2 cAMP Avg EC50 (nM)) | EC50 (SST2; Internalization EC50 (nM))
CC[C@H](C)[C@@H]([C@@H](CC(=O)N1CCC[C@H]1[C@H](OC)[C@@H](C)C(=O)N[C@H](C)[C@@H](O)c1ccccc1)OC)N(C)C(=O)[C@@H](NC(=O)C(C(C)C)N(C)C(=O)OCc1ccc(NC(=O)[C@H](CCCNC(N)=O)NC(=O)[C@@H](NC(=O)CCOCCC(=O)NCCNc2ncc(-c3cc(C)cc(F)c3)c(N3CCC(N)CC3)c2-c2nc3ccc(Cl)cc3[nH]2)C(C)C)c(O[C@@H]2O[C@H](C(=O)N3CC(N)C3)[C@@H](O)[C@H](O)[C@H]2O)c1)C(C)C (stereo partly drawn) [Compound 232] | 0.15 nM | 5.2 nM | 5 nM |  | 
CC[C@H](C)[C@@H]([C@@H](CC(=O)N1CCC[C@H]1[C@H](OC)[C@@H](C)C(=O)N[C@H](C)[C@@H](O)c1ccccc1)OC)N(C)C(=O)[C@@H](NC(=O)[C@H](C(C)C)N(C)C(=O)OCc1ccc(NC(=O)[C@H](CCCNC(N)=O)NC(=O)[C@@H](NC(=O)CCOCCC(=O)NCCNc2ncc(-c3cc(C)cc(F)c3)c(N3CCC(N)CC3)c2-c2nc3ccc(Cl)cc3[nH]2)C(C)C)c(O[C@@H]2O[C@H](C(=O)NCCNC(=O)CCCCCO[PH](=O)OC3CCC(c4ccccc4)(c4ccccc4)CC3)[C@@H](O)[C@H](O)[C@H]2O)c1)C(C)C (stereo partly drawn) [Compound 233] | 1 nM | 18 nM | 500 nM |  | 
CC[C@H](C)[C@@H]([C@@H](CC(=O)N1CCC[C@H]1[C@H](OC)[C@@H](C)C(=O)N[C@H](C)[C@@H](O)c1ccccc1)OC)N(C)C(=O)[C@@H](NC(=O)[C@H](C(C)C)N(C)C(=O)OCc1ccc(NC(=O)[C@H](CCCNC(N)=O)NC(=O)[C@@H](NC(=O)CCOCCC(=O)NCCNc2ncc(-c3cc(C)cc(F)c3)c(N3CCC(N)CC3)c2-c2nc3ccc(Cl)cc3[nH]2)C(C)C)c(O[C@@H]2O[C@H](C(=O)NCC(=O)NCCCCCCO[PH](=O)OC3CCC(c4ccccc4)(c4ccccc4)CC3)[C@@H](O)[C@H](O)[C@H]2O)c1)C(C)C (stereo partly drawn) [Compound 234] | 0.55 nM | 6.6 nM | 140 nM |  | 
CC[C@H](C)[C@@H]([C@@H](CC(=O)N1CCC[C@H]1[C@H](OC)[C@@H](C)C(=O)N[C@H](C)[C@@H](O)c1ccccc1)OC)N(C)C(=O)[C@@H](NC(=O)C(C(C)C)N(C)C(=O)OCc1ccc(NC(=O)[C@H](CCCNC(N)=O)NC(=O)[C@@H](NC(=O)CCOCCC(=O)NCCNc2ncc(-c3cc(C)cc(F)c3)c(N3CCC(N)CC3)c2-c2nc3ccc(Cl)cc3[nH]2)C(C)C)c(O[C@@H]2O[C@H](C(=O)N3CCC(C(=O)O)CC3)[C@@H](O)[C@H](O)[C@H]2O)c1)C(C)C (stereo partly drawn) [Compound 235] | 0.11 nM | 4.4 nM | 14 nM |  | 
CC[C@H](C)[C@@H]([C@@H](CC(=O)N1CCC[C@H]1[C@H](OC)[C@@H](C)C(=O)N[C@H](C)[C@@H](O)c1ccccc1)OC)N(C)C(=O)[C@@H](NC(=O)[C@H](C(C)C)N(C)C(=O)OCc1ccc(NC(=O)[C@H](CCCNC(N)=O)NC(=O)[C@@H](NC(=O)CCOCCC(=O)NCCNc2ncc(-c3cc(C)cc(F)c3)c(N3CCC(N)CC3)c2-c2nc3ccc(Cl)cc3[nH]2)C(C)C)c(O[C@H]2[C@H](O)[C@@H](O)[C@H](O)[C@@H](C(=O)N(C)CC(=O)N(C)CC(=O)N(C)CC(=O)O)[C@H]2O)c1)C(C)C [Compound 236] | 0.14 nM | 5.1 nM | 9.9 nM |  | 
CC[C@H](C)[C@@H]([C@@H](CC(=O)N1CCC[C@H]1[C@H](OC)[C@@H](C)C(=O)N[C@H](C)[C@@H](O)c1ccccc1)OC)N(C)C(=O)[C@@H](NC(=O)[C@H](C(C)C)N(C)C(=O)OCc1ccc(NC(=O)[C@H](CCCNC(N)=O)NC(=O)[C@@H](NC(=O)c2cn(CCOCCC(=O)NCCNc3ncc(-c4cc(C)cc(F)c4)c(N4CCC(N)CC4)c3-c3nc4cc(Cl)ccc4[nH]3)nn2)C(C)C)c(O[C@@H]2O[C@H](C(=O)N3CCNCC3)[C@@H](O)[C@H](O)[C@H]2O)c1)C(C)C [Compound 237] | 0.15 nM | 8.4 nM | 8.2 nM |  | 
CC[C@H](C)[C@@H]([C@@H](CC(=O)N1CCC[C@H]1[C@H](OC)[C@@H](C)C(=O)N[C@H](C)[C@@H](O)c1ccccc1)OC)N(C)C(=O)[C@@H](NC(=O)[C@H](C(C)C)N(C)C(=O)OCc1ccc(NC(=O)[C@H](CCCNC(N)=O)NC(=O)[C@@H](NC(=O)Cn2cc(CCOCCC(=O)NCCNc3ncc(-c4cc(C)cc(F)c4)c(N4CCC(N)CC4)c3-c3nc4cc(Cl)ccc4[nH]3)nn2)C(C)C)c(O[C@@H]2O[C@H](C(=O)N3CCNCC3)[C@@H](O)[C@H](O)[C@H]2O)c1)C(C)C [Compound 238] | 0.12 nM | 4.7 nM | 2.9 nM |  | 
CC[C@@H](C)[C@H]([C@H](CC(=O)N1CCCC1[C@@H](OC)[C@H](C)C(=O)N[C@@H](C)[C@H](O)c1ccccc1)OC)N(C)C(=O)[C@H](NC(=O)[C@@H](C(C)C)N(C)C(=O)OCc1ccc(NC(=O)[C@@H](C)NC(=O)[C@H](NC(=O)[C@@H](CCCO)NC(=O)CCOCCC(=O)NCCNc2ncc(-c3cc(C)cc(F)c3)c(N3CCC(N)CC3)c2-c2nc3ccc(Cl)cc3[nH]2)C(C)C)c(O[C@H]2O[C@@H](C(=O)O)[C@H](O)[C@@H](O)[C@@H]2O)c1)C(C)C (stereo partly drawn) [Compound 239] | 0.16 nM | 4.9 nM | 12 nM |  | 
CC[C@@H](C)[C@H]([C@H](CC(=O)N1CCCC1[C@@H](OC)[C@H](C)C(=O)N[C@@H](C)[C@H](O)c1ccccc1)OC)N(C)C(=O)[C@H](NC(=O)[C@@H](C(C)C)N(C)C(=O)OCc1ccc(NC(=O)[C@H](C)NC(=O)[C@H](NC(=O)CCOCCC(=O)NCCNc2ncc(-c3cc(C)cc(F)c3)c(N3CCC(N)CC3)c2-c2nc3ccc(Cl)cc3[nH]2)C(C)C)c(O[C@H]2O[C@@H](C(=O)O)[C@H](O)[C@@H](O)[C@@H]2O)c1)C(C)C (stereo partly drawn) [Compound 240] | 0.12 nM | 6 nM | 3100 nM |  | 
CC[C@H](C)[C@@H]([C@@H](CC(=O)N1CCC[C@H]1[C@H](OC)[C@@H](C)C(=O)N[C@H](C)[C@@H](O)c1ccccc1)OC)N(C)C(=O)[C@@H](NC(=O)[C@H](C(C)C)N(C)C(=O)OCc1ccc(NC(=O)[C@@H](CCCNC(N)=O)NC(=O)[C@@H](NC(=O)CCOCCC(=O)NCCNc2ncc(-c3cc(C)cc(F)c3)c(N3CCC(N)CC3)c2-c2nc3ccc(Cl)cc3[nH]2)C(C)C)c(O[C@H]2[C@H](O)[C@@H](O)[C@H](O)[C@@H](C(=O)O)[C@H]2O)c1)C(C)C [Compound 241] | 0.19 nM | 4.6 nM | 2900 nM |  | 
CC[C@H](C)[C@@H]([C@@H](CC(=O)N1CCC[C@H]1[C@H](OC)[C@@H](C)C(=O)N[C@H](C)[C@@H](O)c1ccccc1)OC)N(C)C(=O)[C@@H](NC(=O)[C@H](C(C)C)N(C)C(=O)OCc1ccc(NC(=O)C(CCCNC(N)=O)NC(=O)C2(NC(=O)CCOCCC(=O)NCCNc3ncc(-c4cc(C)cc(F)c4)c(N4CCC(N)CC4)c3-c3nc4ccc(Cl)cc4[nH]3)CCC2)c(O[C@@H]2O[C@H](C(=O)O)[C@@H](O)[C@H](O)[C@H]2O)c1)C(C)C (stereo partly drawn) [Compound 242] | 0.045 nM | 2.5 nM | 70 nM |  | 
CC[C@H](C)[C@@H]([C@@H](CC(=O)N1CCC[C@H]1[C@H](OC)[C@@H](C)C(=O)N[C@H](C)[C@@H](O)c1ccccc1)OC)N(C)C(=O)[C@@H](NC(=O)[C@H](C(C)C)N(C)C(=O)OCc1ccc(NC(=O)[C@H](CCCNC(N)=O)NC(=O)[C@@H](NC(=O)[C@H](Cc2c[nH]cn2)NC(=O)CCOCCC(=O)NCCNc2ncc(-c3cc(C)cc(F)c3)c(N3CCC(N)CC3)c2-c2nc3ccc(Cl)cc3[nH]2)C(C)C)c(O[C@@H]2C[C@H](C(=O)O)[C@@H](O)[C@H](O)[C@H]2O)c1)C(C)C [Compound 243] | 0.082 nM | 3.2 nM | 17 nM |  | 
CC[C@H](C)[C@@H]([C@@H](CC(=O)N1CCC[C@H]1[C@H](OC)[C@@H](C)C(=O)N[C@H](C)[C@@H](O)c1ccccc1)OC)N(C)C(=O)[C@@H](NC(=O)[C@H](C(C)C)N(C)C(=O)OCc1ccc(NC(=O)[C@H](CCCNC(N)=O)NC(=O)[C@@H](NC(=O)c2cc(NC(=O)CCOCCC(=O)N(C)CC(=O)NCCNc3ncc(-c4cc(C)cc(F)c4)c(N4CCC(N)CC4)c3-c3nc4ccc(Cl)cc4[nH]3)cc(C(=O)NC[C@@H](O)C(=O)O)c2)C(C)C)cc1)C(C)C [Compound 244] | 0.26 nM | 4 nM | 55 nM |  | 
CC[C@@H](C)[C@H]([C@H](CC(=O)N1CCC[C@@H]1[C@@H](OC)[C@H](C)C(=O)N[C@@H](C)[C@H](O)c1ccccc1)OC)N(C)C(=O)[C@H](NC(=O)[C@@H](C(C)C)N(C)C(=O)OCc1ccc(NC(=O)[C@@H](CCCNC(N)=O)NC(=O)[C@H](NC(=O)[C@@H](CCC(=O)O)NC(=O)CCOCCOCCNC(=O)CCc2cn(CCCC[C@H](NC(=O)CCOCCC(=O)NCCNc3ncc(-c4cc(C)cc(F)c4)c(N4CCC(N)CC4)c3-c3nc4ccc(Cl)cc4[nH]3)C(=O)NCCOCCOCCC(=O)N[C@@H](CCC(=O)O)C(=O)N[C@H](C(=O)N[C@@H](CCCNC(N)=O)C(=O)Nc3ccc(COC(=O)N(C)[C@H](C(=O)N[C@H](C(=O)N(C)[C@@H]([C@@H](C)CC)[C@@H](CC(=O)N4CCC[C@H]4[C@H](OC)[C@@H](C)C(=O)N[C@H](C)[C@@H](O)c4ccccc4)OC)C(C)C)C(C)C)cc3)C(C)C)nn2)C(C)C)cc1)C(C)C [Compound 245] |  |  | 140 nM | 11 nM | 440 nM

From US20260007758A1, “SO[…]-2 RECEPTOR (SST2R) NON-PEPTIDE DRUG CONJUGATES AND USES THEREOF” (Crinetics Pharmaceuticals, Inc., priority 2024, published 2026)
